1 compound from patent publication US4877796A (priority 1986, dated 1989) can be followed below.

Like-named read-outs stand apart in the source and are kept apart here.

This test deals with disturbances of the cardiac rhythm (aconitine) in the rat. Type of test: in vivo. The following applies: for Precentage of the protraction of time: aconitine perfusion five minutes after administration, compared with controls.

For the compound `CN1CCC[C@H]2CCC[C@@H](N(C)C(=O)Cc3ccc(Cl)c(Cl)c3)[C@@H]21` [Example 2, [4aRS(4aα,8α,8aα)](+) N-(decahydro-1-methyl-8-quinolinyl)-3,4-dichloro-N-methyl-benzene-acetamide], the “Precentage of the protraction of time” value (2.5 mg/kg intravenously) was 16%, the “Precentage of the protraction of time” value (5 mg/kg intravenously) is 28% and the “Precentage of the protraction of time” value (10 mg/kg intravenously) is recorded as 43%. Further, the “antiarrythmic properties (in words)” value (intravenously, aconitine model) was “good antiarrythmic properties”.
